According to patent US7420059B2, “HMG-CoA reductase inhibitors and method” (Bristol-Myers Squibb Company, priority 2003, dated 2008):

Compound: CC(C)c1nc2c(c(-c3ccc(F)cc3)c1/C=C/[C@@H](O)C[C@@H](O)CC(=O)O)CCCN2S(C)(=O)=O [Example 22, (E)-(3R,5S)-7-[4-(4-Fluorophenyl)-2-isopropyl-8-methanesulfonyl-5,6,7,8-tetrahydro-[1,8]naphthyridin-3-yl]-3,5-dihydroxyhept-6-enoic Acid]
- melting point: 184 to 186 °C
